Experiment: Partitioning of pure artemisinin between hexane and aqueous ethanol (1:1 v/v), layers quantified by TLC
Format: physicochemical
Procedure: To select an efficient solvent for extraction of artemisinin different solvents systems were tested. For this 10 g of dry powdered leaves of Artemisia annua were extracted with methanol, 20% aqueous methanol, ethanol, 20% aqueous ethanol or hexane as a solvent individually in separate tubes. 10 ml of the solvent was taken out of the tube at 2, 4 and 6 h of incubation. The fraction was evaporated to dryness on a water bath, extract was solubilized in 2.0 ml solvent and spots (5 μl) were loaded on a TLC plate along with pure artemisinin dissolved in the respective solvent @ 1 mg/ml taken as controls. The TLC was carried out in a glass TLC tank saturated with the mobile phase hexane:diethyl ether (1:1), plates were developed to a height of 15 cm. Later plates were dried and spots were visualized by immersing the plates in a developing reagent (glacial acetic acid:sulfuric acid:anisaldehyde, 50:1:0.5), followed by heating the plate at 110° C. for 15 minutes or until pink spots of artemisinin appeared. For quantification, TLC spots corresponding to artemisinin were scanned at 540 and 610 nm dual wavelength mode of TLC scanner. It is clear from the table that pure ethanol and methanol rapidly extract the artemisinin as compared to hexane, however after a certain period of time concentration of artemisinin starts diminishing in methanol and ethanol extracts in contrast to hexane extract possibly because of decomposition or transformation of artemisinin into another unknown compound. Mixing of water in methanol caused a severe decay of artemisinin extraction. Ethanol was more efficient for extracting more artemisinin in less time period as compared to methanol and hexane both. On the basis of lower cost and rapid extraction efficiency ethanol will be a suitable solvent.
Pure artemisinin (0.2 g) was dissolved in different test tubes containing 1:1 (v/v) mixture of two non-miscible solvents, hexane and aqueous ethanol (i.e. ethanol mixed in water), where concentration of ethanol varied from 20 to 80%. After completely solubilizing the artemisinin in the mixture, two layers of hexane and ethanol were separated with the help of a separating funnel. The individual layer from different test tube was tested for the presence of artemisinin content by TLC as in example 1. The results showing the % fraction of artemisinin partitioned between the hexane and aqueous ethanolic layers separated from each tube are given in the Table -2.

[1] = Hexane:20% aqueous-ethanol (1:1 v/v)
[2] = Hexane:40% aqueous-ethanol (1:1 v/v)
[3] = Hexane:60% aqueous-ethanol (1:1 v/v)
[4] = Hexane:80% aqueous-ethanol (1:1 v/v)

% artemisinin in ethanol layer [1]: 100%
% artemisinin in hexane layer [1]: 0%
% artemisinin in ethanol layer [2]: 90%
% artemisinin in hexane layer [2]: 10%
% artemisinin in ethanol layer [3]: 30%
% artemisinin in hexane layer [3]: 70%
% artemisinin in ethanol layer [4]: 0%
% artemisinin in hexane layer [4]: 100%
Compound: C[C@@H]1CC[C@H]2[C@@H](C)C(=O)O[C@@H]3O[C@@]4(C)CC[C@@H]1[C@]32OO4 [artemisinin]

Source: patent US20030185914A1, “Process for isolating artemisinin from artemisia annua” (priority 2002, published 2003)
